# According to patent publication US20260159486A1, “BENZO[H]QUINAZOLINE-4-AMINE DERIVATIVES FOR THE TREATMENT OF CANCER” (Redona Therapeutics, Inc., priority 2021, published 2026):
# What was measured:
# recombinant human CLK3 = target: T1, recombinant human CLK3 (Homo sapiens, UniProt P49761); experiment: CLK3 kinase assay (LANCE Ultra); type: biochemical; conditions: CLK3 0.5 nM, ATP 300 μM, 3 hours at 30° C.
# T1 construct: purchased Thermo Fisher Scientific PV3826
# Method: CLK3 kinase activity was measured using the LANCE® Ultra technology (PerkinElmer) essentially as recommended by the supplier. Briefly, 2.5 μL of test sample at 4× the desired final concentration in 4% DMSO were dispensed into white, low volume, round bottom, 384 well plates (Corning, cat. no. 4512). 5 μL of a mixture containing recombinant human CLK3 (Thermo Fisher Scientific, cat. no. PV3826) and the labeled peptide substrate ULight™-CREBtide (PerkinElmer, cat. no. TRF0107) prepared in 1.33× kinase buffer (Thermo Fisher Scientific, cat. no. PV3189) were then added. Finally, the reactions were started by adding 2.5 μL of a 4× solution of ATP in kinase buffer. The plates were sealed with adhesive foils and incubated for 3 hours at 30° C. in the dark. The final concentrations of CLK3, ULight™-CREBtide, and ATP were 0.5 nM, 50 nM, and 300 μM, respectively. 5 μL of 40 mM EDTA were then added to terminate the reactions. The Eu-anti-phospho-CREB antibody (PerkinElmer, cat. no. TRF0200) diluted in LANCE® detection buffer (PerkinElmer, cat. no. CR97) was then added to a final concentration of 2 nM and the reactions were incubated for 1 hour at room temperature in the dark. The signals were measured using a Synergy 4 reader (BioTek) with a 320/80 nm filter for the excitation and 620/10 nm and 665/8 nm filters for the donor and acceptor emission, respectively. Relative inhibition values were calculated by normalizing the raw data using solvent control wells (0% inhibition) and wells that received no ATP (100% inhibition). IC50 values were calculated by fitting the concentration-response data to a sigmoidal 4-parameter logistic model. IC50 values for CLK3 are determined from duplicate measurements at ten different concentrations (serial 1:3 dilutions).
# CAL-51 cells = experiment: CAL-51 proliferation assay; type: cell-based; conditions: Homo sapiens, CAL-51, 72 h, YO-PRO-1 Iodide readout
# Source text: (§1) MDA-MB-231 and CAL-51 Proliferation Assay
# (§2) Cells (MDA-MB-231 (American Type Culture Collection (ATCC), #HTB-26) or CAL-51 (Deutsche Sammlung von Mikroorganismen und Zellkulturen (DSMZ), #ACC302) as applicable) were cultivated in DMEM High Glucose (4.5 g/L) with L-Glutamine (BioConcept, cat. no. 1-26F03-I) supplemented with 1% Na-pyruvate (Sigma, cat. no. S8636), 1% Penicillin-Streptomycin (BioConcept, cat. no. 4-01F00H), and 10% FBS (Sigma, cat. no. F9665) using standard techniques. Cells were seeded in black, clear-bottom 384 well plates for tissue culture (Greiner Bio-One, cat. no. 781091) at a density of 750 cells per well in 20 μL medium and the plates were incubated overnight at 37° C. with 5% CO2 prior to treatment. Experimental compounds were serially diluted in DMSO to 200× the desired final concentrations. The solutions were then diluted 1:40 with culture medium and 5 μL aliquots were mixed into the wells containing the cells. The final concentration of DMSO was 0.5%. The plates were incubated for 72 hours and cell numbers were then measured using YO-PRO™-1 Iodide (ThermoFisher Scientific, cat. no. Y3603) essentially as recommended by the manufacturer. Briefly, a 12.5 μM solution of YO-PRO™_1 Iodide in 5× YO—PRO buffer (100 mM Na-citrate, 130 mM NaCl, pH 4) was combined with an equal volume of lysis buffer (0.6% NP-40, 30 mM EDTA, 30 mM EGTA, 0.33× YO—PRO buffer) and 12.5 μL of the mixture were dispensed into each well. The plates were incubated at room temperature in the dark for 30 minutes. Fluorescence intensity signals were then measured on a Synergy 4 reader (BioTek) using 485/20 nm and 530/25 nm filters for the excitation and emission, respectively. Relative proliferation values were calculated by normalizing the raw data using DMSO-treated cells (100% proliferation) and the signals obtained from cells that were evaluated at the time of compound addition (0% proliferation). The concentration-response data were fitted to a sigmoidal 4-parameter logistic model with the maximum constrained to 100%. GI50 values were calculated from the curves as the compound concentrations reducing proliferation to 50%.
# MDA-MB-231 cells = experiment: MDA-MB-231 proliferation assay; type: cell-based; conditions: Homo sapiens, MDA-MB-231, 72 h, YO-PRO-1 Iodide readout
# Source text: as §1, §2
# T1 sequence (P49761 whole entry): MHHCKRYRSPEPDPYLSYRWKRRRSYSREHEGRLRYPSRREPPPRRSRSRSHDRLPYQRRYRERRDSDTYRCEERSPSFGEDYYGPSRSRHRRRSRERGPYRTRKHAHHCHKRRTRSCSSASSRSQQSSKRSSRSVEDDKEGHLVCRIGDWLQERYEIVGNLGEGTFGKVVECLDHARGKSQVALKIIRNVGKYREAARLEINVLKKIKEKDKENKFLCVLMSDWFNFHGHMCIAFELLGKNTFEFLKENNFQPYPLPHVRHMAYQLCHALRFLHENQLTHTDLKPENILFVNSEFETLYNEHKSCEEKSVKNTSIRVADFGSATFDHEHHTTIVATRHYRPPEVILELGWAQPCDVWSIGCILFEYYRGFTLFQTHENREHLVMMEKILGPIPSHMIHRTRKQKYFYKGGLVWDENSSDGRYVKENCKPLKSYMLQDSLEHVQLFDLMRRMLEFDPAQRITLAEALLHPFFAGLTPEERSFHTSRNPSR
Compound,IC50 (recombinant human CLK3) [nM],GI50 (CAL-51 cells) [nM],GI50 (MDA-MB-231 cells) [nM]
"CC1(C)Cc2c(ccc(O[C@H]3CC[C@H](N)CC3)c2OCCC#N)-c2ncnc(N)c21 [Example 71, 3-[[4-amino-8-(trans-4-aminocyclohexoxy)-5,5-dimethyl-6H-benzo[h]quinazolin-7-yl]oxy]propanenitrile]",< 30,< 100,100 to 2000
"COc1ccc2c(c1NCC(O)CO)CC(C)(C)c1c(N)ncnc1-2 (stereo not drawn) [Example 27, 3-[(4-amino-8-methoxy-5,5-dimethyl-6H-benzo[h]quinazolin-7-yl)amino]propane-1,2-diol]",30 to 100,100 to 2000,100 to 2000
"CC1(C)Cc2c(ccc(O[C@H]3CC[C@H](N)CC3)c2S(=O)(=O)CCC#N)-c2ncnc(N)c21 [Example 112, 3-[[4-amino-8-(trans-4-aminocyclohexoxy)-5,5-dimethyl-6H-benzo[h]quinazolin-7-yl]sulfonyl]propanenitrile]",30 to 100,100 to 2000,> 2000
"CC1(C)Cc2c(ccc(O[C@H]3CC[C@H](N)CC3)c2N2CCCS2(=O)=O)-c2ncnc(N)c21 [Example 119, 8-(trans-4-aminocyclohexoxy)-7-(1,1-dioxo-1,2-thiazolidin-2-yl)-5,5-dimethyl-6H-benzo[h]quinazolin-4-amine]",< 30,100 to 2000,100 to 2000
"CCN(CCO)c1c(O[C@H]2CC[C@@H](N)CC2)ccc2c1CC(C)(C)c1c(N)ncnc1-2 [Example 22, 2-[[4-amino-8-(4-cis-aminocyclohexoxy)-5,5-dimethyl-6H-benzo[h]quinazolin-7-yl]-ethyl-amino]ethanol]",< 30,< 100,100 to 2000
"CCCCN(C)c1c(O[C@H]2CC[C@H](N)CC2)ccc2c1CC(C)(C)c1c(N)ncnc1-2 [Example 100, 8-(trans-4-aminocyclohexoxy)-N7-butyl-N7,5,5-trimethyl-6H-benzo[h]quinazoline-4,7-diamine]",101 to 1000,100 to 2000,100 to 2000
"CC1(C)Cc2c(ccc(O[C@H]3CC[C@H](N)CC3)c2S(=O)(=O)NCC#N)-c2ncnc(N)c21 [Example 116, 4-amino-8-(trans-4-aminocyclohexoxy)-N-(cyanomethyl)-5,5-dimethyl-6H-benzo[h]quinazoline-7-sulfonamide]",30 to 100,100 to 2000,100 to 2000
"COc1ccn(-c2c(O[C@H]3CC[C@H](N)CC3)ccc3c2CC(C)(C)c2c(N)ncnc2-3)c1 [Example 57, 8-(trans-4-aminocyclohexoxy)-7-(3-methoxypyrrol-1-yl)-5,5-dimethyl-6H-benzo[h]quinazolin-4-amine]",30 to 100,< 100,100 to 2000
"CN1CCN(c2ccc3c(c2N(C)CCC#N)CC(C)(C)c2c(N)ncnc2-3)CC1 [Example 118, 3-[[4-amino-5,5-dimethyl-8-(4-methylpiperazin-1-yl)-6H-benzo[h]quinazolin-7-yl]-methyl-amino]propanenitrile]",< 30,< 100,< 100
"CN(CC#N)S(=O)(=O)c1c(O[C@H]2CC[C@H](N)CC2)ccc2c1CC(C)(C)c1c(N)ncnc1-2 [Example 113, 4-amino-8-(trans-4-aminocyclohexoxy)-N-(cyanomethyl)-N,5,5-trimethyl-6H-benzo[h]quinazoline-7-sulfonamide]",30 to 100,100 to 2000,100 to 2000
"COc1ccc2c(c1NCC[C@@H]1CNC(=O)O1)CC(C)(C)c1c(N)ncnc1-2 [Example 89, (5R)-5-[2-[(4-amino-8-methoxy-5,5-dimethyl-6H-benzo[h]quinazolin-7-yl)amino]ethyl]oxazolidin-2-one]",101 to 1000,100 to 2000,100 to 2000
"CC1(C)Cc2c(ccc3c2NCCO3)-c2ncnc(N)c21 [Example 3, 6,6-dimethyl-2,3,4,5-tetrahydroquinazolino[7,8-f][1,4]benzoxazin-7-amine]",101 to 1000,100 to 2000,> 2000
"CC1(C)Cc2c(ccc(O[C@H]3CC[C@@H](N)CC3)c2NC[C@@H]2CNC(=O)O2)-c2ncnc(N)c21 [Example 128, (5R)-5-[[[4-amino-8-(cis-4-aminocyclohexoxy)-5,5-dimethyl-6H-benzo[h]quinazolin-7-yl]amino]methyl]oxazolidin-2-one]",< 30,> 2000,> 2000
"CC1(C)Cc2c(ccc(O[C@H]3CC[C@H](N)CC3)c2N2CC=CC2=O)-c2ncnc(N)c21 [Example 56, 1-[4-amino-8-(trans-4-aminocyclohexoxy)-5,5-dimethyl-6H-benzo[h]quinazolin-7-yl]-2H-pyrrol-5-one]",101 to 1000,> 2000,> 2000
"COCCNc1c(O[C@H]2CC[C@H](N)CC2)ccc2c1CC(C)(C)c1c(N)ncnc1-2 [Example 18, 8-(trans-4-aminocyclohexoxy)-N7-(2-methoxyethyl)-5,5-dimethyl-6H-benzo[h]quinazoline-4,7-diamine]",101 to 1000,100 to 2000,100 to 2000
"CN(CCC#N)c1c(O[C@H]2CC[C@H](N3CCOCC3)CC2)ccc2c1CC(C)(C)c1c(N)ncnc1-2 [Example 52, 3-[[4-amino-5,5-dimethyl-8-(trans-4-morpholinocyclohexoxy)-6H-benzo[h]quinazolin-7-yl]-methyl-amino]propanenitrile]",< 30,< 100,< 100
"COCCNc1c(O[C@H]2CC[C@@H](N)CC2)ccc2c1CC1(CCCC1)c1c(N)ncnc1-2 [Example 87, 8-(cis-4-aminocyclohexoxy)-N7-(2-methoxyethyl)spiro[6H-benzo[h]quinazoline-5,1′-cyclopentane]-4,7-diamine]",30 to 100,100 to 2000,100 to 2000
"CC1(C)Cc2c(ccc(O[C@H]3CC[C@H](N)CC3)c2NC(=O)CO)-c2ncnc(N)c21 [Example 45, N-[4-amino-8-(trans-4-aminocyclohexoxy)-5,5-dimethyl-6H-benzo[h]quinazolin-7-yl]-2-hydroxy-acetamide]",101 to 1000,> 2000,> 2000
"CN(c1c(O[C@H]2CC[C@H](N)CC2)ccc2c1CC(C)(C)c1c(N)ncnc1-2)S(=O)(=O)CCC(N)=O [Example 86, 3-[[4-amino-8-(trans-4-aminocyclohexoxy)-5,5-dimethyl-6H-benzo[h]quinazolin-7-yl]-methyl-sulfamoyl]propanamide]",< 30,100 to 2000,> 2000
"CC1(C)Cc2c(ccc(O[C@H]3CC[C@H](N)CC3)c2N(CCO)CCO)-c2ncnc(N)c21 [Example 11, 2-[[4-amino-8-(trans-4-aminocyclohexoxy)-5,5-dimethyl-6H-benzo[h]quinazolin-7-yl]-(2-hydroxyethyl)amino]ethanol]",< 30,100 to 2000,> 2000
"CN(c1c(O[C@H]2CC[C@H](N)CC2)ccc2c1CC(C)(C)c1c(N)ncnc1-2)S(=O)(=O)c1ccc(F)cc1 [Example 114, N-[4-amino-8-(trans-4-aminocyclohexoxy)-5,5-dimethyl-6H-benzo[h]quinazolin-7-yl]-4-fluoro-N-methyl-benzenesulfonamide]",< 30,< 100,< 100
